Results taken from patent publication US20050113367A1, “Pharmaceutical composition” (SANKYO COMPANY, LIMITED, priority 2000, published 2005).

Tested on: spontaneously hypertensive rats (SHRs)
Assay: Hypotensive effects elicited by co-administration of CS-866 and hydrochlorothiazide (telemetry blood pressure in SHRs)
Type: in vivo, rat
Conditions: male SHRs, in mmHg (unit assumed)
Text: Hypotensive Effects Elicited by Co-Administration of CS-866 and Hydrochlorothiazide
Twenty-eight male spontaneously hypertensive rats aged 20 weeks (SHRs, SPF grade, purchased from Hoshino Laboratory Animals) were used. A transmitter of a telemeter (TA11PA-C40, DATA SCIENCES Inc.) was implanted in each SHR for recording blood pressure. After recovery from the surgical operations, blood pressure was monitored in the rats from the age of 24 weeks. The rats were orally given 0.5% carboxymethylceflulose solution (CMC, 2 ml/kg) for 7 successive days (once daily) by gavage. They were divided into 4 groups (7 SHRs per group) so as to give equally averaged blood pressure levels in the groups based on the blood pressure recorded on the 5th and 6th days after the CMC solution was initiated. The rats were orally treated with 0.5% CMC solution (2 ml/kg, control group) or test substance suspended in 0.5% CMC solution (2 ml/kg) for 14 successive days (once daily). Blood pressure was monitored 1 day prior to the drug administration and on the 7th and 14th days after the drug was initiated. The group composition, test substances, doses and blood pressure (the 24 hour mean blood pressure A standard error on the respective monitoring days) are summarized in Tables 1 and 2.
The test substances were hydrochlorothiazide (HCTZ), CS-866, and HCTZ and CS-866. HCTZ was prepared so as to be 10 mg/2 ml of final concentration with 0.5% CMC solution. CS-866 was suspended in 0.5% CMC solution so as to be at a final concentration of 1 mg/2 ml. CS-866 and HCTZ solution was prepared so as to be at a final concentration of [10 mg (HCTZ)+1 mg (CS-866)]/2 ml with 0.5% CMC solution.

[1] = 7th day after administration, oral once daily, HCTZ 10 mg/kg, CS-866 1 mg/kg, or both
[2] = 14th day after administration, oral once daily, HCTZ 10 mg/kg, CS-866 1 mg/kg, or both
[3] = 1 day before administration (baseline), oral, once daily, n=7 per group

| SMILES | Blood pressure levels (24 hour mean blood pressure ± standard error) [1] | Blood pressure levels (24 hour mean blood pressure ± standard error) [2] | Blood pressure levels (24 hour mean blood pressure ± standard error) [3] |
| --- | --- | --- | --- |
| CCCc1nc(C(C)(C)O)c(C(=O)OCc2oc(=O)oc2C)n1Cc1ccc(-c2ccccc2-c2nnn[nH]2)cc1 [CS-866, (5-methyl-2-oxo-1,3-dioxolen-4-yl)methyl 4-(1-hydroxy-1-methylethyl)-2-propyl-1-[2′-(1H-tetrazol-5-yl)biphenyl-4-ylmethyl]imidazol-5-carboxylate] | 147 ± 4 | 148 ± 4 | 167 ± 6 |
| NS(=O)(=O)c1cc2c(cc1Cl)NCNS2(=O)=O [HCTZ, 6-chloro-3,4-dihydro-2H-1,2,4,-benzothiadiazin-7-sulfonamide 1,1-dioxide] | 152 ± 6 | 156 ± 6 | 165 ± 6 |
